Numbers after ± are expanded uncertainties.
Assay: xn = mol fraction of the nth substance listed
Conditions: 100 kPa, Liquid; for mass density: Vibrating tube method; for viscosity: Falling or rolling sphere viscometry

CCCCCCCCCCCCCC[P+](CCCCCC)(CCCCCC)CCCCCC.[Cl-] [trihexyl(tetradecyl)phosphonium chloride] + CO
Conditions | mass density [kg/m3] | viscosity [mPa·s]
290.15 K, x1 = 0.0156 | 815.9 ± 6 | –
290.15 K, x1 = 0.0351 | 832.7 ± 6 | –
290.15 K, x1 = 0.056 | 845.2 ± 6 | –
290.15 K, x1 = 0.0811 | 856.7 ± 6 | –
290.15 K, x1 = 0.1271 | 869.2 ± 6 | –
290.15 K, x1 = 0.2092 | 880.2 ± 6 | –
290.15 K, x1 = 0.3681 | 889.1 ± 6 | –
290.15 K, x1 = 0.4851 | 891.6 ± 6 | –
290.15 K, x1 = 0.6453 | 894.2 ± 6 | –
290.15 K, x1 = 0.7844 | 895.8 ± 6.1 | –
290.15 K, x1 = 0.8997 | 896.8 ± 6.1 | –
290.15 K, x1 = 1 | 897.5 ± 6.2 | –
293.15 K, x1 = 0.0156 | 813.3 ± 6 | –
293.15 K, x1 = 0.0351 | 830.4 ± 6 | –
293.15 K, x1 = 0.056 | 842.9 ± 6 | –
293.15 K, x1 = 0.0811 | 854.5 ± 6 | –
293.15 K, x1 = 0.1271 | 867.2 ± 6 | –
293.15 K, x1 = 0.2092 | 878.2 ± 6 | –
293.15 K, x1 = 0.3681 | 887.2 ± 6 | –
293.15 K, x1 = 0.4851 | 889.9 ± 6 | –
293.15 K, x1 = 0.6453 | 892.5 ± 6 | –
293.15 K, x1 = 0.7844 | 894 ± 6.1 | –
293.15 K, x1 = 0.8997 | 895.1 ± 6.1 | –
293.15 K, x1 = 1 | 895.8 ± 6.2 | –
295.15 K, x1 = 0.0156 | 811.2 ± 6 | 1.033 ± 0.1
295.15 K, x1 = 0.0351 | 828.8 ± 6 | 1.798 ± 0.18
295.15 K, x1 = 0.056 | 841.4 ± 6 | 3.34 ± 0.34
295.15 K, x1 = 0.0811 | 853.1 ± 6 | 6.279 ± 0.63
295.15 K, x1 = 0.1271 | 865.8 ± 6 | 15.65 ± 1.6
295.15 K, x1 = 0.2092 | 876.9 ± 6 | 45.36 ± 4.6
295.15 K, x1 = 0.3681 | 885.9 ± 6 | 173 ± 19
295.15 K, x1 = 0.4851 | 888.9 ± 6 | 401.5 ± 48
295.15 K, x1 = 0.6453 | 891.4 ± 6 | 820.4 ± 110
295.15 K, x1 = 0.7844 | 892.9 ± 6.1 | 1285 ± 180
295.15 K, x1 = 0.8997 | 894 ± 6.1 | 1687 ± 250
295.15 K, x1 = 1 | 894.6 ± 6.2 | 1996 ± 300
298.15 K, x1 = 0.0156 | 809.1 ± 6 | 0.988 ± 0.099
298.15 K, x1 = 0.0351 | 826.4 ± 6 | 1.695 ± 0.17
298.15 K, x1 = 0.056 | 839.2 ± 6 | 3.092 ± 0.31
298.15 K, x1 = 0.0811 | 851 ± 6 | 5.794 ± 0.58
298.15 K, x1 = 0.1271 | 863.8 ± 6 | 14.29 ± 1.4
298.15 K, x1 = 0.2092 | 875 ± 6 | 40.2 ± 4.1
298.15 K, x1 = 0.3681 | 884 ± 6 | 149.2 ± 16
298.15 K, x1 = 0.4851 | 887.1 ± 6 | 339.2 ± 40
298.15 K, x1 = 0.6453 | 889.7 ± 6 | 670 ± 86
298.15 K, x1 = 0.7844 | 891.2 ± 6.1 | 1046 ± 140
298.15 K, x1 = 0.8997 | 892.1 ± 6.1 | 1392 ± 200
298.15 K, x1 = 1 | 892.8 ± 6.2 | 1683 ± 250
303.15 K, x1 = 0.0156 | 804.8 ± 6 | 0.911 ± 0.091
303.15 K, x1 = 0.0351 | 822.4 ± 6 | 1.542 ± 0.15
303.15 K, x1 = 0.056 | 835.4 ± 6 | 2.704 ± 0.27
303.15 K, x1 = 0.0811 | 847.4 ± 6 | 5.089 ± 0.51
303.15 K, x1 = 0.1271 | 860.4 ± 6 | 12.28 ± 1.2
303.15 K, x1 = 0.2092 | 871.8 ± 6 | 33.24 ± 3.4
303.15 K, x1 = 0.3681 | 880.9 ± 6 | 116.2 ± 12
303.15 K, x1 = 0.4851 | 884 ± 6 | 255.5 ± 29
303.15 K, x1 = 0.6453 | 886.7 ± 6 | 486.4 ± 60
303.15 K, x1 = 0.7844 | 888.2 ± 6.1 | 744.5 ± 97
303.15 K, x1 = 0.8997 | 889.1 ± 6.1 | 978.6 ± 130
303.15 K, x1 = 1 | 889.8 ± 6.2 | 1174 ± 160
308.15 K, x1 = 0.0156 | 800.5 ± 6 | 0.842 ± 0.084
308.15 K, x1 = 0.0351 | 818.5 ± 6 | 1.407 ± 0.14
308.15 K, x1 = 0.056 | 831.6 ± 6 | 2.287 ± 0.23
308.15 K, x1 = 0.0811 | 843.9 ± 6 | 4.496 ± 0.45
308.15 K, x1 = 0.1271 | 857.1 ± 6 | 10.64 ± 1.1
308.15 K, x1 = 0.2092 | 868.5 ± 6 | 27.72 ± 2.8
308.15 K, x1 = 0.3681 | 877.8 ± 6 | 90.86 ± 9.3
308.15 K, x1 = 0.4851 | 881 ± 6 | 197.3 ± 22
308.15 K, x1 = 0.6453 | 883.7 ± 6 | 363.3 ± 43
308.15 K, x1 = 0.7844 | 885.3 ± 6.1 | 543.1 ± 68
308.15 K, x1 = 0.8997 | 886.2 ± 6.1 | 700 ± 91
308.15 K, x1 = 1 | 886.9 ± 6.2 | 824.1 ± 110
313.15 K, x1 = 0.0156 | 796.3 ± 6 | 0.79 ± 0.079
313.15 K, x1 = 0.0351 | 814.5 ± 6 | 1.289 ± 0.13
313.15 K, x1 = 0.056 | 827.9 ± 6 | 1.901 ± 0.19
313.15 K, x1 = 0.0811 | – | 4.071 ± 0.41
313.15 K, x1 = 0.1271 | – | 9.437 ± 0.95
313.15 K, x1 = 0.2092 | 865.3 ± 6 | 23.32 ± 2.4
313.15 K, x1 = 0.3681 | 874.5 ± 6 | 81.39 ± 8.3
313.15 K, x1 = 0.4851 | 878.6 ± 6 | 151.5 ± 16
313.15 K, x1 = 0.6453 | 880.8 ± 6 | 271.4 ± 31
313.15 K, x1 = 0.7844 | 882.6 ± 6.1 | 396.8 ± 47
313.15 K, x1 = 0.8997 | 883.2 ± 6.1 | 505.7 ± 62
313.15 K, x1 = 1 | 883.9 ± 6.2 | 593.7 ± 75
